Some test systems named below: COLO 205 colon; DU-145 prostate; LOX IMVI melanoma; M14 melanoma; MDA-MB-435; NCI-H23 lung; OVCAR-4 ovarian; OVCAR-5 ovarian; RXF 393 renal; SF-295 CNS.
Experiment in all cases: NCI tumour cell line growth inhibition, 48 h

Each structure is given as a SMILES string.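 Results reflect a 48-hour exposure of cells in 96-well plates to compound at five concentrations. TGI: concentration producing complete growth inhibition.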 Where only a bound is given, the exact number is not on record here.

Experimental findings from PubChem BioAssay (NCI) are described below.

Take `COc1cc(/C=C2\CC3C4CC[C@H]5C[C@@H](O)CC[C@]5(C)C4CC[C@]3(C)\C2=N\O)cc(OC)c1OC` (stereo not given in full): the TGI is 29.4 µM in the assay with COLO 205 colon; > 100 µM in the assay with DU-145 prostate; 64.2 µM with LOX IMVI melanoma; 37.3 µM in the assay with M14 melanoma; 34.8 µM in the assay with MDA-MB-435; > 100 µM with NCI-H23 lung. The TGI in the assay on OVCAR-4 ovarian is 37.9 µM; in the assay with OVCAR-5 ovarian, > 100 µM; in the assay on RXF 393 renal, 36.8 µM; in the assay with SF-295 CNS it was 15.4 µM.
